Data from patent publication US10479795B2 (Incyte Corporation, priority 2016, dated 2019).
Where a name gives a salt, the structure may show the parent alone.

How the values were obtained:
[1] = target: PI3Kγ (p110γ) Recombinant Human Protein (Homo sapiens (Human), UniProt P48736); assay: PI3K-γ Scintillation Proximity Assay; assay type: biochemical; conditions: read-out: PI3Kγ IC50
Summary of the method: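 Recombinant human p110γ assayed at room temperature in 20 mM MOPS pH 6.7, 10 mM MgCl2, 5 mM DTT, 0.03% CHAPS, 2% DMSO, with 20 μM PIP2 and 2 μM ATP plus [γ-33P]ATP. Product captured on WGA SPA beads overnight and counted; IC50 fitted from % of solvent-control activity versus log inhibitor concentration.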

[2] = target: PI3Kδ (p110δ/p85α) Recombinant Human Protein (Homo sapiens (Human), UniProt O00329); assay: PI3Kδ Scintillation Proximity Assay; assay type: biochemical
Summary of the method: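 Recombinant human p110δ/p85α (3.4 nM) phosphorylates 20 μM di-octanoyl PIP2 using 2 μM ATP spiked with [γ-33P]ATP, 120 min, room temperature, pH 6.7, 2% DMSO. Product measured by scintillation proximity; IC50 from dose-response fit.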

Sequence of PI3Kγ (p110γ) Recombinant Human Protein (P48736 whole entry): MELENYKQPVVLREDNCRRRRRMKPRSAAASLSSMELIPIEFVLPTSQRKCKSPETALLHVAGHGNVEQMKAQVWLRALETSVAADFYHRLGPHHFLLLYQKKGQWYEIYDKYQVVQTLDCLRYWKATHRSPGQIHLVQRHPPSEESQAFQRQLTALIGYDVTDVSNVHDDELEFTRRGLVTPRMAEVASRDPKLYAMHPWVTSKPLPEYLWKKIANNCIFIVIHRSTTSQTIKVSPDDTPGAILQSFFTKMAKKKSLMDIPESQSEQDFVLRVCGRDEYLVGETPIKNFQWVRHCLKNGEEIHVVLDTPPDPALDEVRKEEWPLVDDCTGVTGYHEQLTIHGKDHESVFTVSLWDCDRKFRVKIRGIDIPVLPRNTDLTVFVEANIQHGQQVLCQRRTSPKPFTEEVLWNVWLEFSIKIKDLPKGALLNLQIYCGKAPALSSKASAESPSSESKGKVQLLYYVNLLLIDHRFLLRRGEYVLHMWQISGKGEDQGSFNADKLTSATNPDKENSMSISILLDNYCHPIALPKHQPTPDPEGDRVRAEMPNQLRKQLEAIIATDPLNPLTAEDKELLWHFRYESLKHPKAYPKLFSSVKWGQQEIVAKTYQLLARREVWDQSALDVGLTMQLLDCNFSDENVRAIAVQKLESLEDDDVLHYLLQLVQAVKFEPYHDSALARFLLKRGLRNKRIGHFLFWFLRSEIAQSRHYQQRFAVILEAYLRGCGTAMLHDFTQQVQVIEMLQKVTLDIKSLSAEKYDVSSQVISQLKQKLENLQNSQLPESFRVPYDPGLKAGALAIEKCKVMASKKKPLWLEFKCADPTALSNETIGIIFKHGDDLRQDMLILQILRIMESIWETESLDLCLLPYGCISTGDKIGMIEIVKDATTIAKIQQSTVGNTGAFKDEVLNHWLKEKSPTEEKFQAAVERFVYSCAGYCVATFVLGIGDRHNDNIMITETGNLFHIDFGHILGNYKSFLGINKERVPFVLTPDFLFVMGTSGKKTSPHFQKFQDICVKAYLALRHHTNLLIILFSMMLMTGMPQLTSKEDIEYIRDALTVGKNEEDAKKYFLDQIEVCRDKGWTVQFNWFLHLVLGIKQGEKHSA
Sequence of PI3Kδ (p110δ/p85α) Recombinant Human Protein (O00329 whole entry): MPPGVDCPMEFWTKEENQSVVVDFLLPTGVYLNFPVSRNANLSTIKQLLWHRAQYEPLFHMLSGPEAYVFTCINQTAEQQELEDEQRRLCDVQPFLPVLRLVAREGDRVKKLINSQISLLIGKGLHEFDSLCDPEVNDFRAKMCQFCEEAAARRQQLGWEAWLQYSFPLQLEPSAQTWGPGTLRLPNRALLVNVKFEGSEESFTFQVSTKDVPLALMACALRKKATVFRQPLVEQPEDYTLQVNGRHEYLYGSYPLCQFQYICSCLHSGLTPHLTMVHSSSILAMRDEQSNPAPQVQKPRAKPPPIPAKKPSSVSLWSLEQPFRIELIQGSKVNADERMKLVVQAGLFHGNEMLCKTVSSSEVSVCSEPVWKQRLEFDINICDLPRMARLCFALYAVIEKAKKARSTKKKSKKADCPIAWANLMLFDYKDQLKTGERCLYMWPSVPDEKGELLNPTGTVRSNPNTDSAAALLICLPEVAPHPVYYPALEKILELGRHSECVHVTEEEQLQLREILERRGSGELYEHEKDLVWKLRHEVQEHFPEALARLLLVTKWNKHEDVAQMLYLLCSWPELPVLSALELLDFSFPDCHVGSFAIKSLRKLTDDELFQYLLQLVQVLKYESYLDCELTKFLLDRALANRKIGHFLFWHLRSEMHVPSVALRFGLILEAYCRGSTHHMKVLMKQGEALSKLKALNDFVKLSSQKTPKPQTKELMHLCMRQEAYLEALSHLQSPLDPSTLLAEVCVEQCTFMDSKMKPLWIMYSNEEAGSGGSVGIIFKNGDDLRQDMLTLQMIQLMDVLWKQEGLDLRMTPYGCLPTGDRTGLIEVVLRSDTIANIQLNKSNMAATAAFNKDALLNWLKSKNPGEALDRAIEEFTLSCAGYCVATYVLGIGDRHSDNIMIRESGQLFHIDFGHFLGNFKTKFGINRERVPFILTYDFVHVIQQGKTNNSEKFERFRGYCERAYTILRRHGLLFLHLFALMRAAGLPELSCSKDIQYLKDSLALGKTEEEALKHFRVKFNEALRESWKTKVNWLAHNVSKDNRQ
Sequence of PI3Kδ (p110δ/p85α) Recombinant Human Protein (P27986 whole entry partner): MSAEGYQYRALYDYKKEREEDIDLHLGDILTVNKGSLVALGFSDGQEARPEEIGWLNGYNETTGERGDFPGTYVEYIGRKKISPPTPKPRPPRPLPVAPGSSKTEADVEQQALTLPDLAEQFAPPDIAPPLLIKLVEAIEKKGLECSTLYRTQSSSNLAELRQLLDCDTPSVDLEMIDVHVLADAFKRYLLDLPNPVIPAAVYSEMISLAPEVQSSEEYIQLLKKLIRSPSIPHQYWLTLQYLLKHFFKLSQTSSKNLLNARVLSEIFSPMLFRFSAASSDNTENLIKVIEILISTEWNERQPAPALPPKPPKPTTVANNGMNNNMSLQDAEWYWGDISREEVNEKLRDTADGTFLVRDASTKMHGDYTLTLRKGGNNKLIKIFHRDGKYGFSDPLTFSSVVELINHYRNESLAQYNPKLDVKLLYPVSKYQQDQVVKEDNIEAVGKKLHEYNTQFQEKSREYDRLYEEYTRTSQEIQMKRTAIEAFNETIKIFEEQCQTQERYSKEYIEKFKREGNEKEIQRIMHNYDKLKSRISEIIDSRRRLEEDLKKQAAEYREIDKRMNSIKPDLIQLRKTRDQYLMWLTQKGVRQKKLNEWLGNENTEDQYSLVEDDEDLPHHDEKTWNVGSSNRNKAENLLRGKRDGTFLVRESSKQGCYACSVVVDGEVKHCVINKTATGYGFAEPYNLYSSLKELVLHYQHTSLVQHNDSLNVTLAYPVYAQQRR

SMILES	IC50 [1] [nM]	IC50 [2] [nM]
Cc1ccc(S(=O)(=O)N2CC3(CC(O)C3)C2)cc1-c1cnc2c(N)nc(C(F)(F)F)cn12 [Example 297, 2-((3-(8-amino-6-(trifluoromethyl)imidazo[1,2-a]pyrazin-3-yl)-4-methylphenyl)sulfonyl)-2-azaspiro[3.3]heptan-6-ol]	< 100	500 to 2000
Cc1ccc(S(=O)(=O)N2CCN(C)C(=O)C2)cc1-c1cnc2c(N)nc(C(F)(F)F)cn12 [Example 298, 4-((3-(8-amino-6-(trifluoromethyl)imidazo[1,2-a]pyrazin-3-yl)-4-methylphenyl)sulfonyl)-1-methylpiperazin-2-one]	< 100	500 to 2000
Cc1ccc(S(=O)(=O)N2CCCC2c2c(C)noc2C)cc1-c1cnc2c(N)nc(C(F)(F)F)cn12 (stereo not shown) [Example 300, 3-(5-((2-(3,5-dimethylisoxazol-4-yl)pyrrolidin-1-yl)sulfonyl)-2-methylphenyl)-6-(trifluoromethyl)imidazo[1,2-a]pyrazin-8-amine]	< 100	500 to 2000
Cc1ccc(S(=O)(=O)N2CC3CC3(C#N)C2)cc1-c1cnc2c(N)nc(C(F)(F)F)cn12 (stereo not shown) [Example 302, 3-((3-(8-amino-6-(trifluoromethyl)imidazo[1,2-a]pyrazin-3-yl)-4-methylphenyl)sulfonyl)-3-azabicyclo[3.1.0]hexane-1-carbonitrile]	< 100	500 to 2000
Cc1ccc(S(=O)(=O)N2CC3NCC2C3O)cc1-c1cnc2c(N)nc(C(F)(F)F)cn12 (stereo not shown) [Example 303, 2-((3-(8-amino-6-(trifluoromethyl)imidazo[1,2-a]pyrazin-3-yl)-4-methylphenyl)sulfonyl)-2,5-diazabicyclo[2.2.1]heptan-7-ol 2HCl]	< 100	500 to 2000
Cc1ccc(S(=O)(=O)N2CCOC3CNCC32)cc1-c1cnc2c(N)nc(C(F)(F)F)cn12 (stereo not shown) [Example 304, 3-(5-((hexahydropyrrolo[3,4-b][1,4]oxazin-4(4aH)-yl)sulfonyl)-2-methylphenyl)-6-(trifluoromethyl)imidazo[1,2-a]pyrazin-8-amine]	< 100	500 to 2000
COC1CCCN(S(=O)(=O)c2ccc(C)c(-c3cnc4c(N)nc(C(F)(F)F)cn34)c2)C1 (stereo not shown) [Example 313, 3-(5-((3-Methoxypiperidin-1-yl)sulfonyl)-2-methylphenyl)-6-(trifluoromethyl)imidazo[1,2-a]pyrazin-8-amine]	< 100	100 to 500
CCN1CC2C(O)C1CN2S(=O)(=O)c1ccc(C)c(-c2cnc3c(N)nc(C(F)(F)F)nn23)c1 (stereo not shown) [Example 349, 2-((3-(4-amino-2-(trifluoromethyl)imidazo[2,1-f][1,2,4]triazin-7-yl)-4-methylphenyl)sulfonyl)-5-ethyl-2,5-diazabicyclo[2.2.1]heptan-7-ol]	< 100	500 to 2000
Cc1ccc(S(=O)(=O)N2CC3C(O)C2CN3C(C)C)cc1-c1cnc2c(N)nc(C(F)(F)F)nn12 (stereo not shown) [Example 350, 2-((3-(4-amino-2-(trifluoromethyl)imidazo[2,1-f][1,2,4]triazin-7-yl)-4-methylphenyl)sulfonyl)-5-isopropyl-2,5-diazabicyclo[2.2.1]heptan-7-ol]	100 to 500	500 to 2000
Cc1ccc(S(=O)(=O)N2CC3C(O)C2CN3C2CCC(C#N)C2)cc1-c1cnc2c(N)nc(C(F)(F)F)nn12 (stereo not shown) [Example 351, 3-(5-((3-(4-amino-2-(trifluoromethyl)imidazo[2,1-f][1,2,4]triazin-7-yl)-4-methylphenyl)sulfonyl)-7-hydroxy-2,5-diazabicyclo[2.2.1]heptan-2-yl)cyclopentane-1-carbonitrile]	< 100	500 to 2000
Cc1ccc(S(=O)(=O)N2CC3C(O)C2CN3C)cc1-c1cnc2c(N)nc(C(F)(F)F)nn12 (stereo not shown) [Example 352, 2-((3-(4-amino-2-(trifluoromethyl)imidazo[2,1-f][1,2,4]triazin-7-yl)-4-methylphenyl)sulfonyl)-5-methyl-2,5-diazabicyclo[2.2.1]heptan-7-ol]	< 100	500 to 2000
Cc1cc(C)c(S(=O)(=O)NCC(C)(C)O)cc1-c1cnc2c(N)nccn12 [Example 361, 5-(8-aminoimidazo[1,2-a]pyrazin-3-yl)-N-(2-hydroxy-2-methylpropyl)-2,4-dimethylbenzenesulfonamide]	100 to 500	100 to 500
Nc1ncnn2c(-c3ccc(F)c(S(=O)(=O)NC45CCC(CO)(C4)C5)c3)cnc12 [Example 366, 5-(4-Aminoimidazo[1,2-f][1,2,4]triazin-7-yl)-2-fluoro-N-(4-(hydroxymethyl)bicyclo[2.1.1]hexan-1-yl)benzenesulfonamide trifluoroacetate salt]	< 100	100 to 500
Nc1ncnn2c(-c3cccc(S(=O)(=O)NC45CCC(CO)(C4)C5)c3)cnc12 [Example 368, 3-(4-Aminoimidazo[1,2-f][1,2,4]triazin-7-yl)-N-(4-(hydroxymethyl)bicyclo[2.1.1]hexan-1-yl)benzenesulfonamide trifluoroacetate salt]	< 100	100 to 500
Cc1ccc(-c2cnc3c(N)ncnn23)cc1S(=O)(=O)NC12CCC(C#N)(C1)C2 [Example 369, 5-(4-Aminoimidazo[1,2-f][1,2,4]triazin-7-yl)-N-(4-cyanobicyclo[2.1.1]hexan-1-yl)-2-methylbenzenesulfonamide trifluoroacetate salt]	< 100	100 to 500
Cc1ccc(S(=O)(=O)N[C@H]2C[C@H](C#N)C2)cc1-c1cnc2c(N)ncnn12 [Example 370, 3-(4-Aminoimidazo[2,1-f][1,2,4]triazin-7-yl)-N-((1r,3r)-3-cyanocyclobutyl)-4-(methyl-d3)benzenesulfonamide trifluoroacetate salt]	< 100	100 to 500
COc1ccc(S(=O)(=O)NC23CCC(C#N)(C2)C3)cc1-c1cnc2c(N)ncnn12 [Example 372, 3-(4-Aminoimidazo[1,2-f][1,2,4]triazin-7-yl)-N-(4-cyanobicyclo[2.1.1]hexan-1-yl)-4-methoxybenzenesulfonamide trifluoroacetate salt]	< 100	500 to 2000
N#CC12CCC(NS(=O)(=O)c3ccc(OC(F)(F)F)c(-c4cnc5c(N)ncnn45)c3)(C1)C2 [Example 373, 3-(4-Aminoimidazo[1,2-f][1,2,4]triazin-7-yl)-N-(4-cyanobicyclo[2.1.1]hexan-1-yl)-4-(trifluoromethoxy)benzenesulfonamide trifluoroacetate salt]	500 to 2000	500 to 2000
Cc1cn2c(-c3ccc(F)c(S(=O)(=O)NC45CC(C#N)(C4)C5)c3)cnc2c(N)n1 [Example 382, 5-(8-Amino-6-methylimidazo[1,2-a]pyrazin-3-yl)-N-(3-cyanobicyclo[1.1.1]pentan-1-yl)-2-fluorobenzenesulfonamide trifluoroacetate salt]	100 to 500	500 to 2000
N#Cc1ccc(S(=O)(=O)NC23CCC(CO)(C2)C3)cc1-c1cnc2c(N)nc(C(F)(F)F)cn12 [Example 401, 3-(8-Amino-6-(trifluoromethyl)imidazo[1,2-a]pyrazin-3-yl)-4-cyano-N-(4-(hydroxymethyl)bicyclo[2.1.1]hexan-1-yl)benzenesulfonamide trifluoroacetate salt]	< 100	> 2000
CC(C)(O)CNS(=O)(=O)c1ccc(C(F)(F)F)c(-c2cnc3c(N)nc(C(F)(F)F)cn23)c1 [Example 407, 3-(8-amino-6-(trifluoromethyl)imidazo[1,2-a]pyrazin-3-yl)-N-(2-hydroxy-2-methylpropyl)-4-(trifluoromethyl)benzenesulfonamide]	500 to 2000	> 2000
CCN(CC)CCCCNC(=O)c1cn2c(-c3cc(S(C)(=O)=O)ccc3C)cnc2c(N)n1 [Example 452, 8-Amino-N-(4-(diethylamino)butyl)-3-(2-methyl-5-(methylsulfonyl)phenyl)imidazo[1,2-a]pyrazine-6-carboxamide trifluoroacetate salt]	> 2000	100 to 500
Cc1ccc(S(C)(=O)=O)cc1-c1cnc2c(N)nc(C(=O)NCCc3cnn(C)c3)cn12 [Example 453, 8-amino-N-(2-(1-methyl-1H-pyrazol-4-yl)ethyl)-3-(2-methyl-5-(methylsulfonyl)phenyl)imidazo[1,2-a]pyrazine-6-carboxamide trifluoroacetate salt]	100 to 500	100 to 500
Cc1ccc(S(C)(=O)=O)cc1-c1cnc2c(N)nc(C(=O)Nc3cc(-c4ccco4)[nH]n3)cn12 [Example 454, 8-amino-N-(5-(furan-2-yl)-1H-pyrazol-3-yl)-3-(2-methyl-5-(methylsulfonyl)phenyl)imidazo[1,2-a]pyrazine-6-carboxamide trifluoroacetate salt]	100 to 500	500 to 2000
Cc1ccc(S(C)(=O)=O)cc1-c1cnc2c(N)nc(C(=O)Nc3ccc(N4CCN(C)CC4)cn3)cn12 [Example 455, 8-amino-3-(2-methyl-5-(methylsulfonyl)phenyl)-N-(5-(4-methylpiperazin-1-yl)pyridin-2-yl)imidazo[1,2-a]pyrazine-6-carboxamide trifluoroacetate salt]	500 to 2000	500 to 2000
Cc1ccc(S(C)(=O)=O)cc1-c1cnc2c(N)nc(C(=O)NCCCn3cccn3)cn12 [Example 457, N-(3-(1H-pyrazol-1-yl)propyl)-8-amino-3-(2-methyl-5-(methylsulfonyl)phenyl)imidazo[1,2-a]pyrazine-6-carboxamide trifluoroacetate salt]	100 to 500	100 to 500
